Measured values as given in patent US10508085B2, “Compounds and methods for IDO and TDO modulation, and indications therefor” (Plexxikon Inc., priority 2016, dated 2019).
pIC50: −log10 of the molar value. Like-named read-outs stand apart in the source and are kept apart here.

Assays:
[1] = biological target: T1, Human Indoleamine 2,3-dioxygenase (IDO) (Homo sapiens, UniProt P14902); assay: Human IDO enzymatic assay (kynurenine level); format: biochemical; conditions: for IC50: 6 nM IDO, 10 μM L-Trp, geometric mean, read-out: IDO1 GMean: IC50 (μM) (Biochemical Assay)
T1 construct: His tag (N); made in house; host or cells: E. coli
T1 sequence (P14902 whole entry): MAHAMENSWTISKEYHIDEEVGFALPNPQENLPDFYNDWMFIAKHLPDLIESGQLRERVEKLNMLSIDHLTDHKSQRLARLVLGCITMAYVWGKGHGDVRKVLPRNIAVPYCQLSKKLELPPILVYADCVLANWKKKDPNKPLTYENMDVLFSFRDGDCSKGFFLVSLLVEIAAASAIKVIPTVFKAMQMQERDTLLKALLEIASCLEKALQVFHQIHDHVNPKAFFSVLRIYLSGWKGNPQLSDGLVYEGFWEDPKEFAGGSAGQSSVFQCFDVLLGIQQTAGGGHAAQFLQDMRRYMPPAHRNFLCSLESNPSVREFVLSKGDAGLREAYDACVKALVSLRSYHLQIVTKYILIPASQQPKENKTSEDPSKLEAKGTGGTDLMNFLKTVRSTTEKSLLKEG
Summary of the method: (§1)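 N-His human IDO (6 nM, 10 μM L-Trp, 5 μM methylene blue, 20 min) or TDO (1 nM, 350 μM L-Trp, 0.4 μM methylene blue, 70 min) run at room temp in pH 6.5 phosphate with ascorbate, catalase, Tween 20. TCA stop, 30 min 50 °C converts N-formylkynurenine to kynurenine; IC50 by nonlinear regression.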

[2] = biological target: T2, Human Tryptophan 2,3-dioxygenase (TDO) (Homo sapiens, UniProt P48775); assay: Human TDO enzymatic assay (kynurenine level); format: biochemical; conditions: for IC50: 1 nM TDO, 350 μM L-Trp, geometric mean, read-out: TDO GMean: IC50 (μM) (Biochemical Assay)
T2 construct: His tag (N); made in house; host or cells: E. coli
T2 sequence (P48775 whole entry): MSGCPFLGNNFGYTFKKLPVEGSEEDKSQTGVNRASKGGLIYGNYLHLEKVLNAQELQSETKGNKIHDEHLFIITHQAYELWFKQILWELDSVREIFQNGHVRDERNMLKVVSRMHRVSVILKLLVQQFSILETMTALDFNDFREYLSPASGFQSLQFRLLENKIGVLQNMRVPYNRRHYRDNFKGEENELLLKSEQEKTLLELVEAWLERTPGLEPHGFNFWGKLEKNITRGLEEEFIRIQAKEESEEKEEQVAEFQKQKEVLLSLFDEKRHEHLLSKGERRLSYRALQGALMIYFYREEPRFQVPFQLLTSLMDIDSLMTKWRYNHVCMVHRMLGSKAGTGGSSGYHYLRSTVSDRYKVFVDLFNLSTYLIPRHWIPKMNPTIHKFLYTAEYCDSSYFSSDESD
Summary of the method: as §1

[3] = biological target: T3, human IDO (IDO1-expressing HEK293 cells) (Homo sapiens, UniProt P14902); assay: Cell based kynurenine assay, IDO1-expressing HEK293 cell clones; conditions: for IC50: IDO1-expressing HEK293 cells, geometric mean, read-out: HEK293 IDO1 Kynurenine GMean IC50 (μM) (Cellular Assay)
T3 construct: expressed in transfected cells
T3 sequence (P14902 whole entry): as the sequence (P14902 whole entry) above
Summary of the method: (§2)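 Stably transfected HEK293 clones expressing human IDO1 or TDO (CMV promoter) were seeded at 2.5×10^4 cells/well and treated with serially diluted compounds for 24 h. Supernatant kynurenine was then measured, and % inhibition versus DMSO-treated cell and media-only controls was fitted by nonlinear regression to give IC50.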

[4] = biological target: T4, human TDO (TDO-expressing HEK293 cells) (Homo sapiens, UniProt P48775); assay: Cell based kynurenine assay, TDO-expressing HEK293 cell clones; conditions: for IC50: TDO-expressing HEK293 cells, geometric mean, read-out: HEK293 TDO Kynurenine GMean IC50 (μM) (Cellular Assay)
T4 construct: expressed in transfected cells
T4 sequence (P48775 whole entry): as the sequence (P48775 whole entry) above
Summary of the method: as §2

SMILES | IC50 [1] [µM] | IC50 [2] [µM] | IC50 ([3]; 24 hours incubation) [µM] | IC50 ([4]; 24 hours incubation) [µM] | IC50 ([3]; 24 hours) [µM] | IC50 ([4]; 24 hours) [µM] | pIC50 ([1]; biochemical assay, comparative examples, 4,6 versus 5,7 indazole, read-out: IDO1) | pIC50 ([2]; biochemical assay, comparative examples, 4,6 versus 5,7 indazole, read-out: TDO) | pIC50 ([3]; cellular assay, HEK293, 24 hours, comparative examples, read-out: hIDO1) | pIC50 ([4]; cellular assay, HEK293, 24 hours, comparative examples, read-out: hTDO)
CC(C)S(=O)(=O)N1CCC(C(C)(C)C(O)c2cc(Cl)cc3cn[nH]c23)CC1 (stereo not shown) [Compound P-0307, 1-(5-chloro-1H-indazol-7-yl)-2-(1-(isopropylsulfonyl)piperidin-4-yl)-2-methylpropan-1-ol] | 0.0001 to 10 | 0.0001 to 10 | 0.0001 to 10 | 0.0001 to 10 |  |  |  |  |  | 
CCC(=O)N1CCC(C(F)(F)C(O)c2c(F)c(Cl)cc3cn[nH]c23)CC1 (stereo not shown) [Compound P-0374, 1-(4-(2-(5-chloro-6-fluoro-1H-indazol-7-yl)-1,1-difluoro-2-hydroxyethyl)piperidin-1-yl) propan-1-one] | 0.0001 to 10 | 0.0001 to 10 | 0.0001 to 10 | 0.0001 to 10 |  |  |  |  |  | 
OC(c1cc(Cl)cc2cn[nH]c12)C1(C(F)(F)F)CC1 (stereo not shown) [Compound P-0119, (5-chloro-1H-indazol-7-yl)(1-(trifluoromethyl)cyclopropyl)methanol] | 0.0001 to 10 | 0.0001 to 10 | 0.0001 to 10 | 0.0001 to 10 |  |  |  |  |  | 
CC(=O)N1C[C@H]2CC[C@@H](C1)[C@@H]2C(F)(F)C(O)c1c(F)c(Cl)cc2cn[nH]c12 (stereo partly drawn) [Compound P-0139, 1-((1R,5S,8r)-8-(2-(5-chloro-6-fluoro-1H-indazol-7-yl)-1,1-difluoro-2-hydroxyethyl)-3-azabicyclo[3.2.l]octan-3-yl)ethan-l-one] | 0.0001 to 10 | 0.0001 to 10 | 0.0001 to 10 | 0.0001 to 10 |  |  |  |  |  | 
CC(C)(C1CCN(C(=O)NCC2CC2)CC1)[C@H](O)c1cc(Cl)cc2cn[nH]c12 [Compound P-0560, (S)-4-(1-(5-chloro-1H-indazol-7-yl)-1-hydroxy-2-methylpropan-2-yl)-N-(cyclopropylmethyl) piperidine-1-carboxamide] | 0.0001 to 10 | 0.0001 to 10 |  |  | 0.0001 to 10 | 0.0001 to 10 |  |  |  | 
NC(=O)N1CCC(C2(C(O)c3c(F)c(Cl)cc4cn[nH]c34)CC2)CC1 (stereo not shown) [Compound P-0161, 4-(1-((5-chloro-6-fluoro-1H-indazol-7-yl)(hydroxy)methyl)cyclopropyl)piperidine-1-carboxamide] | 0.0001 to 10 | 0.0001 to 10 | 0.0001 to 10 | 0.0001 to 10 |  |  |  |  |  | 
CCC(CC)(CCC#N)C(O)c1cc(Cl)cc2cn[nH]c12 (stereo not shown) [Compound P-0256, 4-((5-chloro-1H-indazol-7-yl)(hydroxy)methyl)-4-ethylhexanenitrile] | 0.0001 to 10 | 0.0001 to 10 | 0.0001 to 10 | 0.0001 to 10 |  |  |  |  |  | 
COc1cc(CC(=O)N2CCC(C(F)(F)C(O)c3cc(Cl)cc4cn[nH]c34)CC2)ccn1 (stereo not shown) [Compound P-0526, 1-(4-(2-(5-chloro-1H-indazol-7-yl)-1,1-difluoro-2-hydroxyethyl)piperidin-1-yl)-2-(2-methoxypyridin-4-yl)ethan-1-one] | 0.0001 to 10 | 0.0001 to 10 |  |  | 0.0001 to 10 | 0.0001 to 10 |  |  |  | 
CC(C1CC1)(C1CC1)C(O)c1cc(Cl)cc2cn[nH]c12 (stereo not shown) [Compound P-0259, 1-(5-chloro-1H-indazol-7-yl)-2,2-dicyclopropylpropan-1-ol] | 0.0001 to 10 | 0.0001 to 10 | 0.0001 to 10 | 0.0001 to 10 |  |  |  |  |  | 
CC(C)(C1CCOCC1)C(O)c1cc(Cl)cc2[nH]ncc12 (stereo not shown) [drawing 817] |  |  |  |  |  |  | 6.02 | 7.10 | 5.16 | 8.00
COCCCNC(=O)N1CCC(C(C)(C)C(O)c2c(F)c(Cl)cc3cn[nH]c23)CC1 (stereo not shown) [Compound P-0420, 4-(1-(5-chloro-6-fluoro-1H-indazol-7-yl)-1-hydroxy-2-methylpropan-2-yl)-N-(3-methoxypropyl) piperidine-1-carboxamide] | 0.0001 to 10 | 0.0001 to 10 |  |  | 0.0001 to 10 | 0.0001 to 10 |  |  |  | 
CC(C)(C1CCN(C(=O)Nc2ccc(F)cc2)CC1)[C@H](O)c1cc(Cl)cc2cn[nH]c12 [Compound P-0344, (S)-4-(1-(5-chloro-1H-indazol-7-yl)-1-hydroxy-2-methylpropan-2-yl)-N-(4-fluorophenyl)piperidine-1-carboxamide] | 0.0001 to 10 | 0.0001 to 10 | 0.0001 to 10 | 0.0001 to 10 |  |  |  |  |  | 
CC(C)(C1CCN(C(=O)Nc2cccnc2)CC1)C(O)c1cc(Cl)cc2cn[nH]c12 (stereo not shown) [Compound P-0358, 4-(1-(5-chloro-1H-indazol-7-yl)-1-hydroxy-2-methylpropan-2-yl)-N-(pyridin-3-yl)piperidine-1-carboxamide] | 0.0001 to 10 | 0.0001 to 10 | 0.0001 to 10 | 0.0001 to 10 |  |  |  |  |  | 
